Measured values: patent US20250137032A1, “TWO-COMPONENT SYSTEMS FOR USE IN CELL-FREE GENE EXPRESSION” (priority 2023, published 2025)
Structures can show the parent of a compound that is named as a salt.

Columns and labels:
[1] = target: T1, NarX-RssA (Serratia marcescens, UniProt Q8GP19); test: Cell-free iron-sensing NarX chimera, luciferase reporter; type: biochemical
T1 construct: All genes were; made in house; host or cells: cell-free expression in situ, myTXTL E. coli extract, with DMPC, POPC or DOPC vesicles

[2] = Dynamic light scattering of 100% POPC vesicles in the presence of ligands (liposome stability); type: physicochemical
[3] = literature value, cited from earlier work; for Kc (kBT) (6): bending rigidity; for CPP (4): critical packing parameter; for Tm (7): membrane transition temperature, in °C (unit assumed)
[4] = test system: cell-free protein synthesis; test: Cell-free protein synthesis (myTXTL): NarX western blot band intensity and luminescence; type: biochemical, E. coli; conditions: increasing ligand concentration, NarX band intensity / luminescence (FIG. 7, FIG. 14)
Method: Protein expression was performed using the myTxTl system (Arbor Biosceinces). 5 μL reactions were assembled with 10 mM lipid, 0.1 nM plasmid encoding T7 RNA polymerase, 9.9 nM plasmids encoding NarX, NarL, and reporter gene (nano luciferase or GFP) in specified ratios, and various concentration of ligands. Cell-free reactions were allowed to progress at 30° C. for 16 hours. Luciferase luminescence was read using the NanoGlo luciferase system and GFP fluorescence (ex. 480 nm, em. 507 nm) was read using a Molecular Devices Spectra Max i3 plate reader. To calculate fold change, luminescence values in the presence of nitrate were divided by the luminescence values in the absence of nitrate for each replicate.
1 μL of cell-free reaction was diluted to 15 μL in Laemlli buffer and heated at 95° C. for 10 minutes. Samples were then loaded and run on a 12% Mini-PROTEAN TGX Precast Protein Gel (Bio-Rad) at 150 V for 90 minutes. Wet transfer was performed onto a PVDF membrane (Bio-Rad) for 45 min at 100 V. Membranes were then blocked for an hour at room temperature in 5% milk in TBST (pH 7.6:50 mM Tris, 150 mM NaCl, HCl to pH 7.6, 0.1% Tween) and incubated for 1 hour at room temperature or overnight at 4° C. with primary solution (anti-Flag (Sigma F1804) or anti-Myc (ab32), diluted 1:1000 in 5% milk in TBST). Primary antibody solution was decanted, and the membrane was washed three times for 5 minutes in TBST and then incubated in secondary solution at room temperature for 1 hour (HRP-anti-Mouse (CST 7076) diluted 1:3000 in 5% milk in TBST). Membranes were then washed in TBST and incubated with Clarity Western ECL Substrate (Bio-Rad) for 5 min. Blots were imaged using an Azure Biosystems c280 imager and band intensities were quantified with ImageJ.

[5] = test system: NarX-VanS Chimera; test: Cell-free vancomycin-sensing NarX chimera, luciferase reporter; type: biochemical, Enterococcus faecium
[6] = plasmid concentrations which enabled functional NarX sensing
[7] = reporter plasmid reduced by 90%, DMPC, POPC, DOPC vesicles
[8] = 100% POPC vesicles in the presence of 100 μM ligand
[9] = 100% POPC vesicles in the presence of 1 mM ligand

SMILES	Kc (kBT) (6) [3]	CPP (4) [3]	2 Dc (A) (2) [3]	Area (Å^2) (1) [3]	C2:C2 (Å) (6) [3]	DHH (Å) (2) [3]	F (kcal/mol/Å) (6) [3]	Ka (dyn/cm) (6) [3]	Kc^PBM (6) [3]	Kg (10^−20 J) (6) [3]	Kg/Kc (6) [3]	Kg^M (10^−20 J) (6) [3]	Kg^M/Kc^M (6) [3]	Ktw (10^−20 J) (6) [3]	Kθ (10^−20 J/nm^2) (6) [3]	Lipid Volume (A^3) (3) [3]	P-C (Å) Head group thickness (6) [3] [Å]	P:P (Å) (6) [3]	δ (Å) (6) [3]	Tm (7) [3]	further results
[Cl][Fe]([Cl])[Cl] [Iron, iron (III) chloride anhydrous]																					sensor response to ligand (gene expression) [1, 6]: no gene expression was observed; sensor response to ligand (luciferase expression) [1, 7]: functional sensors; Diameter (nm) [2, 8]: 118.62 nm; P.D.I. [2, 8]: 0.135
CCCCCCCC/C=C\CCCCCCCC(=O)O[C@H](COC(=O)CCCCCCCCCCCCCCC)COP(=O)(O)OCCN [POPE, 1-palmitoyl-2-oleoyl-sn-glycero-3-phosphoethanolamine]	31.2	1.08	32.6	56.6	30.67	43.4	0.2041	260	10.78	5.85 10^−20 J	0.44	0.06 10^−20 J	0.01	2.36 10^−20 J	8.04 10^−20 J/nm^2	1176.8	10.88	41.55	10.12	25	# of lipid contacts (5) [3]: 1.5; Lateral Pressure (pN/nm^2) (3) [3]: 456 pN/nm^2; Ro (Å) (6) [3]: −2220 Å; γ chain (6) [3]: 0.188
CCCCCCCC/C=C\CCCCCCCC(=O)OC[C@H](COP(=O)([O-])OCC[N+](C)(C)C)OC(=O)CCCCCCC/C=C\CCCCCCCC [DOPC, 1,2-dioleoyl-sn-glycero-3-phosphocholine]	28.8	1.09	28.8	67.4	27.37	36.7	0.061	290	9.71	−0.08 10^−20 J	−0.01	−0.84 10^−20 J	−0.14	0.99 10^−20 J	6.4 10^−20 J/nm^2	1304.5	10.98	38.35	9.41	−17	Lateral Pressure (pN/nm^2) (3) [3]: 480 pN/nm^2; γ chain (6) [3]: 0.18(5) ·
CCCCCCCC/C=C\CCCCCCCC(=O)OC(COC(=O)CCCCCCCCCCCCCCC)COP(=O)([O-])OCC[N+](C)(C)C (stereo not drawn) [POPC, 1-palmitoyl-2-oleoyl-glycero-3-phosphocholine]	31.7	0.61	28.8	64.3	27.52	37	0.0303	280	9.5	−1.38 10^−20 J	−0.1	−1.09 10^−20 J	−0.17	1.45 10^−20 J	5.52 10^−20 J/nm^2	1231.2	11.02	38.54	9.64	−9	# of lipid contacts (5) [3]: 2.75; Lateral Pressure (pN/nm^2) (3) [3]: 517 pN/nm^2; Ro (Å) (6) [3]: −315 Å; γ chain (6) [3]: 0.198
O.O.O.O.O.O=S(=O)([O-])[O-].[Cu+2] [copper, copper (II) sulfate pentahydrate]																					effect on cell-free protein expression [4]: inhibited cell-free protein expression; effect on cell-free protein expression ([4]; listed as Copper): inhibits cell-free protein synthesis
CCCCCCCCCCCCCC(=O)OC[C@H](COP(=O)([O-])OCC[N+](C)(C)C)OC(=O)CCCCCCCCCCCCC [DMPC, 1,2-dimyristoyl-sn-glycero-3-phosphocholine]	29.3	1	25.4	60.6	24.54	35.3	−0.0225	210	5.75	−3.23 10^−20 J	−0.26	−1.32 10^−20 J	−0.22	2.18 10^−20 J	4.02 10^−20 J/nm^2	1100	11.11	35.65	9.48	24	Lateral Pressure (pN/nm^2) (3) [3]: 442 pN/nm^2; Ro (Å) (6) [3]: −47 Å; γ chain (6) [3]: 0.247
CN[C@H](CC(C)C)C(=O)N[C@H]1C(=O)N[C@@H](CC(N)=O)C(=O)N[C@H]2C(=O)N[C@H]3C(=O)N[C@H](C(=O)N[C@H](C(=O)O)c4cc(O)cc(O)c4-c4cc3ccc4O)[C@H](O)c3ccc(c(Cl)c3)Oc3cc2cc(c3O[C@@H]2O[C@H](CO)[C@@H](O)[C@H](O)[C@H]2O[C@H]2C[C@](C)(N)[C@H](O)[C@H](C)O2)Oc2ccc(cc2Cl)[C@H]1O [Vancomycin, vancomycin hydrochloride]																					Diameter (nm) [2, 9]: 124.88 nm; P.D.I. [2, 9]: 0.189; sensor response to ligand (gene expression) [5, 6]: no gene expression was observed; sensor response to ligand (luciferase expression) [5, 7]: did not induce an increase in luciferase expression
CCCCCCCC/C=C\CCCCCCCC(=O)O[C@H](COC(=O)CCCCCCCCCCCCCCC)COP(=O)([O-])OCC(O)CO.[Na+] (mixture of isomers) [POPG, 1-palmitoyl-2-oleoyl-sn-glycero-3-phospho-(1′-rac-glycerol) (sodium salt)]	26.9	0.7	27.9	66	26.88	38.5	0.0036	180	5.67	−2.76 10^−20 J	−0.24	−1.43 10^−20 J	−0.25	1.05 10^−20 J	6.15 10^−20 J/nm^2	1226.6	10.61	37.49	9.57	−2	
